Results as given in ChEMBL document CHEMBL1177888, “Mn(II), Co(II) and Zn(II) complexes with heterocyclic substituted thiosemicarbazones: synthesis, characterization, X-ray crystal structures and antitumor comparison” (Eur J Med Chem, 2010).

system: K562; assay: Cytotoxicity against human K562 cells after 48 hrs by MTT assay; assay type: functional, cell-based; conditions: K562, 48 h

In order of falling IC50:
1. C/C(=N\NC(N)=S)c1ccccn1  29.7 µM
2. CNC(=S)N/N=C(\C)c1ccccn1  4.58 µM
3. S=C(N/N=C(\c1ccccc1)c1ccccn1)Nc1ccccc1  1.43 µM
